These results are taken from PubChem BioAssay (NCI).

The structures appear in SMILES notation. Several values for one entry are separate records, joined by “and”; a condition that tells them apart may be missing. Equal entries are not always repeated.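 Growth conditions: 96-well plates. Treatment: test compound, 48 hours, 5 concentrations. Analysis: linear interpolation between bracketing concentrations; unreached endpoints set to highest concentration. The concentration for 50% growth inhibition is given as GI50. TGI: concentration producing complete growth inhibition.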

Some test systems named below: OVCAR-3 ovarian; NCI-H23 lung; NCI-H460 lung; HL-60(TB) leukemia; SF-295 CNS; SK-MEL-5 melanoma; SK-OV-3 ovarian; HCC-2998 colon; HOP-92 NSCLC.
What all share (test): NCI tumour cell line growth inhibition, 48 h

In the case of `O=C([CH-]C(=O)c1ccccc1)c1ccccc1.[CH-]1CCCCC1.[CH-]1CCCCC1.[CH-]1CCCCC1.[Sn+4]`, the GI50 in the experiment on OVCAR-3 ovarian was 5.89 µM; with NCI-H23 lung, 6.06 µM; in the experiment on NCI-H460 lung, 8.88 µM; with HL-60(TB) leukemia, 2.28 µM; in the experiment on SF-295 CNS, 8.1 µM; with SK-MEL-5 melanoma, 6.58 µM. The GI50 is 43.5 µM in the experiment with SK-OV-3 ovarian and 6.1 µM in the experiment on HCC-2998 colon. The TGI came to 19.8 µM in the experiment on OVCAR-3 ovarian; 20.3 µM in the experiment on NCI-H23 lung; 6.59 µM in the experiment with HL-60(TB) leukemia; 22.1 µM with SF-295 CNS; 19.1 µM in the experiment with SK-MEL-5 melanoma; 68.6 µM in the experiment with SK-OV-3 ovarian. In the experiment with HCC-2998 colon, this molecule returned a TGI of 18.9 µM.
Consider `COc1ccc2c3c([nH]c2c1[N+](=O)[O-])C(C)N(Cc1ccccc1)CC3` (configuration not stated), for which the TGI is 49 µM with OVCAR-3 ovarian; more than 100 µM in the experiment with NCI-H23 lung; 14.1 µM with NCI-H460 lung; 6.1 µM with HL-60(TB) leukemia; more than 100 µM in the experiment with HCC-2998 colon.
On to `COC(=O)C1Cc2c(n(C)c3ccccc23)C(CCC(=O)O)N1Cc1ccccc1` (configuration not stated), for which the TGI in the experiment with OVCAR-3 ovarian was 53.4 µM; in the experiment with NCI-H23 lung, 80.7 µM; with NCI-H460 lung, 80.7 µM; with HL-60(TB) leukemia, more than 100 µM; in the experiment on HOP-92 NSCLC, 60.2 µM; with SF-295 CNS it was 93.9 µM. Moreover, the TGI with SK-MEL-5 melanoma was 79.5 µM; with SK-OV-3 ovarian it was more than 100 µM; in the experiment on HCC-2998 colon, more than 100 µM.
With `COc1cc(/C=C/C(=O)/C=C/c2ccc(-n3ccnc3C)cc2)ccc1O`, the GI50 in the experiment on OVCAR-3 ovarian was 2.85 µM; in the experiment on NCI-H23 lung, 2.08 µM; with NCI-H460 lung it was 15.4 µM; in the experiment on HL-60(TB) leukemia it was 3.26 µM; in the experiment on HOP-92 NSCLC, 10.1 µM; in the experiment on SF-295 CNS, 24.6 µM. Also, the GI50 with SK-MEL-5 melanoma is 3.25 µM; in the experiment with SK-OV-3 ovarian, 8.14 µM; with HCC-2998 colon, 1.75 µM. Also, the TGI in the experiment on OVCAR-3 ovarian was 8.41 µM; in the experiment with NCI-H23 lung, 5.5 µM; in the experiment with NCI-H460 lung it was 43.4 µM; with HL-60(TB) leukemia, 32.5 µM; in the experiment with HOP-92 NSCLC, 45.6 µM; in the experiment with SF-295 CNS it was more than 100 µM. In addition, the TGI with SK-MEL-5 melanoma was 11.9 µM; in the experiment on SK-OV-3 ovarian, more than 100 µM; in the experiment with HCC-2998 colon, 3.21 µM.
As for `C[C@]12CC[C@H]3[C@@H](CC=C4C[C@@H](N5CCCC5)CC[C@@]43C)[C@@H]1C/C(=C\c1cccc(OCCN3CCOCC3)c1)[C@@H]2O`, the GI50 in the experiment with OVCAR-3 ovarian was 2.3 µM; in the experiment on NCI-H23 lung, 13.3 µM; with NCI-H460 lung it was 3.28 µM; in the experiment with HL-60(TB) leukemia, 4.32 µM; in the experiment on SF-295 CNS, 2.96 µM; with SK-MEL-5 melanoma, 2.88 µM. Also, the GI50 in the experiment with SK-OV-3 ovarian is 17.2 µM. Further, the TGI was 7.55 µM in the experiment with OVCAR-3 ovarian; 41.6 µM with NCI-H23 lung; more than 100 µM in the experiment on NCI-H460 lung; more than 100 µM with HL-60(TB) leukemia; more than 100 µM in the experiment with SF-295 CNS; 10.6 µM in the experiment on SK-MEL-5 melanoma. Also, the TGI in the experiment with SK-OV-3 ovarian was found to be 35.1 µM.
As for `COC(=O)N/N=C(\C)c1c(O)cc(C)oc1=O`, the TGI in the experiment on NCI-H23 lung, in the experiment with NCI-H460 lung, in the experiment with HL-60(TB) leukemia, in the experiment with HOP-92 NSCLC, with SF-295 CNS and with SK-MEL-5 melanoma was more than 100 µM in each case. Further, the TGI in the experiment with SK-OV-3 ovarian and in the experiment with HCC-2998 colon was more than 100 µM in each case.
As to `CC(=O)[O-].Cn1ccnc1CNCc1nccn1C.[Cu+2].[O-][Cl+3]([O-])([O-])[O-]`, the GI50 was more than 100 µM with OVCAR-3 ovarian; more than 100 µM in the experiment on NCI-H23 lung; 51.2 µM in the experiment on NCI-H460 lung; more than 100 µM in the experiment on HL-60(TB) leukemia; 96.9 µM in the experiment with SF-295 CNS; more than 100 µM in the experiment on SK-MEL-5 melanoma. The GI50 in the experiment on SK-OV-3 ovarian and with HCC-2998 colon was more than 100 µM in each case. The TGI in the experiment on OVCAR-3 ovarian, in the experiment on NCI-H23 lung, with NCI-H460 lung, with HL-60(TB) leukemia, with SF-295 CNS and in the experiment on SK-MEL-5 melanoma was more than 100 µM each time. For the same molecule, the TGI with SK-OV-3 ovarian and with HCC-2998 colon was more than 100 µM throughout.
Take `N/C(=N\N=C\c1ccc(C(F)(F)F)cc1)NO`: the TGI in the experiment with OVCAR-3 ovarian is 62.9 µM; with NCI-H23 lung, 52.9 µM; in the experiment on NCI-H460 lung it was more than 100 µM; with HL-60(TB) leukemia, 46.3 µM; in the experiment on HOP-92 NSCLC, 58.8 µM; in the experiment on SF-295 CNS, more than 100 µM. Besides, the TGI with SK-OV-3 ovarian was more than 100 µM.
Regarding `O=[N+]([O-])C=C(c1ccc(Cl)cc1)c1ccc(Cl)cc1`, the TGI in the experiment with NCI-H23 lung amounted to 25.6 µM; with NCI-H460 lung, 36.7 µM; with HL-60(TB) leukemia it was 44 µM; with SF-295 CNS, 32.8 µM; in the experiment with HCC-2998 colon, 34.4 µM.
Turning to `CCCCCCCCCCCCCCCCCCn1cc[n+](C)c1`, the GI50 in the experiment with OVCAR-3 ovarian was 0.366 µM; in the experiment on NCI-H460 lung it was 0.521 µM and 0.659 µM; in the experiment on HL-60(TB) leukemia it was 0.143 µM and 0.293 µM; in the experiment on HOP-92 NSCLC, 0.35 µM; with SK-OV-3 ovarian, 1.23 µM and 1.1 µM; in the experiment on HCC-2998 colon it was 0.303 µM and 0.192 µM. The TGI in the experiment with OVCAR-3 ovarian was 1.27 µM; in the experiment with NCI-H460 lung it was 1.8 µM and 2.11 µM; with HL-60(TB) leukemia it was 0.336 µM and 1.67 µM; in the experiment on HOP-92 NSCLC, 2.62 µM; with SK-OV-3 ovarian it was 4.14 µM and 2.62 µM; in the experiment on HCC-2998 colon, 1.26 µM and 0.913 µM.
As for `CCOC(=O)C(=O)CC1=Nc2ccccc2SC(c2cccc(C)c2)C1` (configuration not stated), the TGI is 34 µM in the experiment with OVCAR-3 ovarian; 32 µM with NCI-H23 lung; 36.4 µM in the experiment with NCI-H460 lung; 32 µM in the experiment with HOP-92 NSCLC; 36.2 µM in the experiment on SK-MEL-5 melanoma; 31.3 µM with HCC-2998 colon.
Consider `CC1/C(=N\O)CC(c2ccccc2)N(C)C1c1ccccc1` (configuration not stated), for which the TGI with OVCAR-3 ovarian, with NCI-H23 lung, with NCI-H460 lung, in the experiment with HL-60(TB) leukemia, in the experiment with HOP-92 NSCLC and with SF-295 CNS was more than 100 µM in each case. The TGI in the experiment with SK-MEL-5 melanoma, with SK-OV-3 ovarian and in the experiment on HCC-2998 colon was more than 100 µM in each case.
As to `CCOP(=O)(OCC)C1CCCOC1=O` (configuration not stated), the TGI in the experiment on OVCAR-3 ovarian, in the experiment with NCI-H23 lung, with NCI-H460 lung, in the experiment on HL-60(TB) leukemia, in the experiment with SF-295 CNS and in the experiment with SK-MEL-5 melanoma was more than 100 µM each time. In addition, the TGI in the experiment on SK-OV-3 ovarian and in the experiment on HCC-2998 colon was more than 100 µM in each case.
